Reference: US20220133642A1, “TOPICAL FILM-FORMING SPRAY” (GRACE THERAPEUTICS INC., priority 2015, published 2022)
Counter-ions that a name gives are not always drawn.

Assay: Solubility study for drug saturation in spray vehicle
Assay type: physicochemical
Conditions: 16 mg of drug; after standing
Procedure: Solubility studies to find out concentration at which the drug is present at saturation levels were performed as follows: The drug (bupivacaine hydrochloride 2, 4, 8, 10, 12 & 16 mg) was added to, propylene glycol, oleyl alcohol and menthol in ethanol under stirring and mixing till clear solution is formed. The film-forming polymer in the clear drug solution was added while stirring till polymer dissolves or hydrates completely.

CCCCN1CCCCC1C(=O)Nc1c(C)cccc1C (stereo not shown) [bupivacaine hydrochloride]
appearance of drug solution: precipitated out from clear solution after standing
